Measurements as given in patent US5688774A (priority 1995, dated 1997).
Like-named read-outs stand apart in the source and are kept apart here.

Columns and labels:
[1] = target: T1, rat brain A2a receptor (Rattus norvegicus, UniProt P30543); assay: Displacement of [^3 H]CGS 21680 binding at A2a receptors
T1 construct: A2 receptors from rat striatal membranes; from tissue; host or cells: rat striatal membranes
Procedure: Rat cerebral cortical and striatal membranes were prepared (Jacobson et al., J. Med. Chem., 35, 4143-4149 (1992)) and treated with ADA for 30 min at 37° C. prior to storage at -70° C.
The stock solutions were diluted with DMSO to a concentration of ≤0.1 mM prior to addition to the aqueous medium. The final concentration of DMSO in the assay medium was generally 2%.
At least six different concentrations spanning three orders of magnitude, adjusted appropriately for the IC50 of each compound, were used. […]. Pharmacol., 22, 3099-3108 (1973)).

[2] = target: T2, rat brain A1 receptor (Rattus norvegicus, UniProt P25099); assay: Displacement of [^3 H]PIA binding at A1 receptors; settings: for % Inhibition (A1): at 10^-4, rat brain
T2 construct: Rat cerebral cortical and striatal membranes were prepared; from tissue; host or cells: rat brain membranes (cerebral cortical)
T2 sequence (P25099 1-326): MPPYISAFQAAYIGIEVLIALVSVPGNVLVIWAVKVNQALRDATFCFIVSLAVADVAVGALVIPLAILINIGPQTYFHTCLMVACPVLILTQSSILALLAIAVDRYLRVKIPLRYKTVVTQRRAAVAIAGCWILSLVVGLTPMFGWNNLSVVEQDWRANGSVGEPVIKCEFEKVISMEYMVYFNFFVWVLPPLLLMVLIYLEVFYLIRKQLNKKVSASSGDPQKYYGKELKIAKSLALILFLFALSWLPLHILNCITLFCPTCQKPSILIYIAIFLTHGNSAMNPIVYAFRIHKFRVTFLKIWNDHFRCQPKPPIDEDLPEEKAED

[3] = target: T3, rat A3 adenosine receptors (Rattus norvegicus, UniProt P28647); assay: Inhibition of adenylate cyclase in CHO cells stably transfected with rat A3 adenosine receptors; format: cell-based; parameters: key to Effect on IB-MECA dose-resp. curve: no effect; settings: for Ratio Conc./Ki (A3): test concentration divided by Ki (A3)
T3 construct: expressed in transfected cells; host or cells: CHO cells, stably transfected
T3 sequence (P28647 1-320): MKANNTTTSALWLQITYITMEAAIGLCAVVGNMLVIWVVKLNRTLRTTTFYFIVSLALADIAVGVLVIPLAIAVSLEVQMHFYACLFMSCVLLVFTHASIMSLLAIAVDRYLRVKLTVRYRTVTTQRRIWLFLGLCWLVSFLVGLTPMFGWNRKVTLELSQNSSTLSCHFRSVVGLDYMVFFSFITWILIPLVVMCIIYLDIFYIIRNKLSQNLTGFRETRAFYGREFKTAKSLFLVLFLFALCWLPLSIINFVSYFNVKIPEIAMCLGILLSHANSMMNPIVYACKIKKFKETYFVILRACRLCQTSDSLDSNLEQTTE

[4] = [^3 H]CGS 21680, rat brain membranes, Ki ± S.E.M., n = 3-6
[5] = [^3 H]PIA, rat brain membranes, Ki ± S.E.M., n = 3-6
[6] = at 10^-4, [^3 H]CGS 21680, rat brain
[7] = CHO, 1 μM forskolin, average ± S.E.M. for 2-3 determinations or a single value, read-out: % Inhib. (adenylate cyclase)

T1 sequence (P30543 whole entry): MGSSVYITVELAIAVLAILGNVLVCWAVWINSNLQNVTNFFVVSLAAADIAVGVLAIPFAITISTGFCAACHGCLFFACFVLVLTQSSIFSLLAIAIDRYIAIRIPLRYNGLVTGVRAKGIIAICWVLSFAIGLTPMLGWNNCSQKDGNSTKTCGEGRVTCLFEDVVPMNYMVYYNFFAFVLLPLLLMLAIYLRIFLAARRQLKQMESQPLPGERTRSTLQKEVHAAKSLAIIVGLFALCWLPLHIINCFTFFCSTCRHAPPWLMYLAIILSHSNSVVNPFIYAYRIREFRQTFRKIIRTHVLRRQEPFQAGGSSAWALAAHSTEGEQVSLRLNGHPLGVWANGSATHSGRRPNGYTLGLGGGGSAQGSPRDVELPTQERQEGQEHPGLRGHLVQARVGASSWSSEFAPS

| Ki [1, 4] [µM] | Ki [2, 5] [µM] | Compound | also measured |
| --- | --- | --- | --- |
| 19.6 ± 7.8 | 5.44 ± 0.05 | Cn1cnc2c(NCc3cccc(I)c3)nc(NN)nc21 [Compound 10, 2-Hydrazido-N^6-(3-Iodobenzyl)-9-Methyladenine] | – |
| – | – | CNC(=O)[C@H]1O[C@@H](n2cnc3c(NNc4ccccc4)ncnc32)[C@H](O)[C@@H]1O [Compound 70, 6-(N'-phenylhydrazinyl)Purine-9-β-Ribofuranoside-5'-N-Methyluronamide] | Ki [1]: 7.16 µM |
| 3.56 ± 0.84 | 0.648 ± 0.102 | CNc1nc(NCc2cccc(I)c2)c2ncn(C)c2n1 [Compound 11, N^6-(3-Iodobenzyl)-2-Methylamino-9-Methyladenine] | – |
| – | 6.69 ± 0.74 | CNC(=O)[C@@H]1C[C@H](N)[C@H](n2cnc3c(NCc4cccc(I)c4)nc(Cl)nc32)O1 [Compound 43, 2-Chloro-9-(2'-Amino-2',3'-dideoxy-β-D-5'-methyl-Arabinofuronamido)N^6-(3-Iodobenzyl)adenine] | % Inhibition (A2a) [1, 6]: 2% |
| 54.7 ± 3.1 | 150 ± 28 | 9-(β-talosyl)adenine | – |
| – | – | CNC(=O)[C@H]1O[C@@H](n2cnc3c(NCc4cccc(I)c4)nc(Cl)nc32)[C@H](O)[C@@H]1O [2-chloro-N^6-(3-iodobenzyl)-adenosine-5'-N-methyluronamide, reference compound] | agonist efficacy in inhibition of adenylate cyclase ([3]; in words, via rat A3 receptors): full agonist; agonist potency in inhibition of adenylate cyclase ([3]; in words, vs. other agonists): greater than that of other agonists |
| 18.9 ± 1.9 | 13.8 ± 2.2 | OC[C@@H](O)Cn1cnc2c(NCc3cccc(I)c3)ncnc21 [Compound 19, R--N^6-(3-Iodobenzyl)-9-(2,3-Dihydroxypropyl)adenine] | – |
| 2.7 ± 0.56 | 0.45 ± 0.11 | Cn1cnc2c(NCc3cccc(I)c3)nc(Cl)nc21 [Compound 6, 2-Chloro-N^6-(3-Iodobenzyl)-9-Methyladenine] | – |
| – | – | CCCNc1nc(NCc2cccc(I)c2)c2ncn(C)c2n1 [Compound 13, N^6-(3 -Iodobenzyl)-9-Methyl-2-Propylaminoadenine] | Ki [1]: 1.72 ± 0.7 µM; Ki [2]: 0.33 ± 0.08 µM |
| 41.8 ± 12.5 | 19.1 ± 2.2 | OC[C@H](O)Cn1cnc2c(NCc3cccc(I)c3)ncnc21 [Compound 20, S--N^6-(3-Iodobenzyl)-9-(2,3-Dihydroxypropyl)adenine] | – |
| 41.9 ± 6.2 | 1.29 ± 0.08 | CNC(=O)[C@@H]1C[C@@H](OS(C)(=O)=O)[C@H](n2cnc3c(NCc4cccc(I)c4)nc(Cl)nc32)O1 [Compound 41, 2-Chloro-9-(3-Deoxy-2-Methanesulfonyl-β-D-5-Methyl-Ribofuronamido)-N^6-(3-Iodobenzyl)adenine] | – |
| – | – | CSc1nc(NCc2cccc(I)c2)c2ncn(C[C@@H](O)CO)c2n1 [Compound 19b, R-N^6-(3-Iodobenzyl)-9-(2,3-dihydroxypropyl)-2-methylthioadenine] | Effect on IB-MECA dose-resp. curve ([3]; 1 μM forskolin): c; inhibition at 40 µM ([3]; CHO, 40 μM, 1 μM forskolin, average ± S.E.M. for 2-3 determinations or a single value, read-out: % Inhib. (adenylate cyclase)): 7.4 ± 3.7%; Ratio Conc./Ki (A3) [3]: 4.6 |
| – | – | CNC(=O)[C@H]1O[C@@H](n2cnc3c(NCc4cccc(NC(=O)CCN)c4)ncnc32)[C@H](O)[C@@H]1O [Compound 66, N^6-[3(β-Alanylamino)Benzyl]Adenosine-5'-Methyluronamide] | Ki [1]: 0.144 ± 0.04 µM |
| – | – | Clc1nc(NCc2cccc(I)c2)c2ncn(C3CCCO3)c2n1 (stereo not drawn) [Compound 30, 2-Chloro-N-(3-Iodobenzyl)-9-(2-Tetrahydrofuryl)-9H-Purin-6-Amine] | Ki [1]: 4.12 ± 0.18 µM; Ki [2]: 0.174 ± 0.017 µM |
| 9.89 ± 3.01 | 1.48 ± 0.12 | CN(C)c1nc(NCc2cccc(I)c2)c2ncn(C)c2n1 [Compound 12, 2-Dimethylamino-N^6-(3-Iodobenzyl)-9-Methyladenine] | – |
| 90 ± 12.7 | 24.2 ± 7.9 | 2-Chloro-9-(β-arabinosyl)adenine | – |

| Ki [1, 4] [µM] | Ki [2, 5] [µM] | Compound | also measured |
| --- | --- | --- | --- |
| – | – | CNC(=O)[C@H]1O[C@@H](n2cnc3c(NOc4ccccc4)ncnc32)[C@H](O)[C@@H]1O [Compound 71] | Ki [1]: 66.3 µM |
| – | – | CNC(=O)[C@@H]1C[C@H](F)[C@H](n2cnc3c(NCc4cccc(I)c4)nc(Cl)nc32)O1 [Compound 44, 2-Chloro-9-(2',3'-Dideoxy-2'-Fluoro-β-D-5'-Methyl-Arabinofuronamido)-N^6-(3-Iodobenzyl)adenine] | inhibition at 100 µM [3, 7]: 11.2%; Ratio Conc./Ki (A3) [3]: 5.6 |
| – | – | CCCCCCNc1nc(NCc2cccc(I)c2)c2ncn(C)c2n1 [Compound 14, 2-Hexylamino-N^6-(3-Iodobenzyl)-9-Methyladenine] | % Inhibition (A2a) [1]: 11 ± 4%; Ki [2]: 4.48 ± 0.82 µM |
| 2.23 ± 1.33 | 5.73 ± 1.88 | Cn1cnc2c(NCc3cccc(I)c3)ncnc21 [Compound 3, N^6-(3-Iodobenzyl)-9-Methyladenine] | – |
| – | – | CNc1nc(NCc2cccc(I)c2)c2ncn([C@@H]3OC[C@@H](O)[C@H]3O)c2n1 [Compound 29, 9-(β-D-Erythrofuranoside)-2-Methylamino-N^6-(3-Iodobenzyl)adenine] | Ki [1]: 3.39 ± 0.29 µM; Ki [2]: 0.66 ± 0.01 µM |
| 18.7 ± 5.8 | 6.03 ± 1.37 | N#CCCCn1cnc2c(NCc3cccc(I)c3)ncnc21 [Compound 22, N^6-(3-Iodobenzyl)-9-(3-Cyanopropyl)adenine] | – |
| 11.6 ± 4 | 0.84 ± 0.19 | Cn1cnc2c(NCc3cccc(I)c3)nc(Sc3ccncc3)nc21 [Compound 17, N^6-(3-Iodobenzyl)-9-Methyl-2-(4-Pyridylthio)adenine] | – |
| – | – | O=C(O)Cn1cnc2c(NCc3cccc(I)c3)ncnc21 [Compound 21, N^6-(3-Iodobenzyladenin-9-yl)acetic Acid] | % Inhibition (A2a) [1]: 9%; % Inhibition (A1) ([2]; [^3 H]PIA): 17% |
| – | – | CNC(=O)[C@H]1O[C@@H](n2cnc3c(NCc4cccc(NC(=O)CCNC(=O)OC(C)(C)C)c4)ncnc32)[C@H](O)[C@@H]1O [Compound 67, N^6-[3-(N-6-Boc-β-Alanylamino)Benzyl]Adenosine-5'-Methyluronamide] | Ki [1]: 1.96 µM |
| 15.1 ± 1.6 | 22.9 ± 3.7 | OCCn1cnc2c(NCc3cccc(I)c3)ncnc21 [Compound 18, N^6-(3-Iodobenzyl)-9-Hydroxyethyladenine] | – |
| – | – | CNC(=O)[C@H]1O[C@@H](n2cnc3c(NCc4cccc(NC(=O)[C@@H]5CCCN5)c4)ncnc32)[C@H](O)[C@@H]1O [Compound 65, N^6-[3-(L-Prolylamino)Benzyl]Adenosine-5'-N-Methyluronamide] | Ki [1]: 0.215 ± 0.054 µM |
| 3.22 ± 1.52 | 5.57 ± 1.32 | Cn1cnc2c(NCc3cccc(I)c3)nc(N)nc21 [Compound 9, 2-Amino-N^6-(3-iodobenzyl)-9-methyladenine] | – |
| 1.24 ± 0.11 | 0.5 ± 0.21 | COc1nc(NCc2cccc(I)c2)c2ncn(C)c2n1 [Compound 15, N^6-(3-Iodobenzyl)-2-Methoxy-9-Methyladenine] | – |
| – | – | CNC(=O)[C@H]1C[C@@H](n2cnc3c(NCc4cccc(I)c4)ncnc32)[C@H](O)[C@@H]1O (relative stereo) [Compound 61, (±)-9-[2α,3β-Dihydroxy-4β-(N-Methylcarbamoyl)Cyclopent-1β-yl)]-N^6-(3-Iodobenzyl)-adenine] | % Inhibition (A2a) [1, 6]: 28 ± 5% |
| – | – | CNC(=O)[C@H]1O[C@@H](n2cnc3c(NCc4cccc(I)c4)nc(Cl)nc32)[C@H](OC(=O)c2ccccc2)[C@@H]1OC(=O)c1ccccc1 [2-Chloro-9-(2',3'-dibenzoyl-β-D-5-methyl-ribofuronamido)-N^6-(3-iodobenzyl)adenine] | % Inhibition (A2a) [1]: 7%; % Inhibition (A1) ([2]; [^3 H]PIA): 21% |
| 6.22 ± 2.71 | 8.61 ± 2.55 | CNC(=O)[C@H]1O[C@@H](n2cnc3c(NCc4ccco4)ncnc32)[C@H](O)[C@@H]1O [Compound 74, 1-(6-Furfurylamino-9H-Purin-9-yl)-1-Deoxy-N-Methyl-β-D-Ribofuranosiduronamide] | – |

| Compound | Ki [1, 4] [µM] | Ki [2, 5] [µM] | also measured |
| --- | --- | --- | --- |
| CNC(=O)[C@@H]1C[C@H](N=[N+]=[N-])[C@H](n2cnc3c(NCc4cccc(I)c4)nc(Cl)nc32)O1 [Compound 42, 2-Chloro-9-(2'-Azido-2',3'-Dideoxy-β-D-5'-Methyl-Arabinofuronamido)-N^6 (3-Iodobenzyladenine)] | 28.1 ± 3.2 | 0.401 ± 0.041 | inhibition at 100 µM [3, 7]: 27.8%; Ratio Conc./Ki (A3) [3]: 17 |
